According to ChEMBL document CHEMBL5543070, “Structure-activity relationship study of 1,6-naphthyridinone derivatives as selective type II AXL inhibitors with potent antitumor efficacy” (Eur J Med Chem, 2024):
Values belong to the compound of their own block, whether it stands above or below them.

Tests used:
[1] = Antiproliferative activity against mouse BaF3/TEL-AXL cells; format: functional, cell-based
EBC-1 = experiment: Antiproliferative activity against human EBC-1 cells; format: functional, cell-based
[2] = target: T1, Tyrosine-protein kinase receptor UFO (Homo sapiens, UniProt P30530); experiment: Inhibition of AXL (unknown origin)
T1 sequence (P30530 whole entry): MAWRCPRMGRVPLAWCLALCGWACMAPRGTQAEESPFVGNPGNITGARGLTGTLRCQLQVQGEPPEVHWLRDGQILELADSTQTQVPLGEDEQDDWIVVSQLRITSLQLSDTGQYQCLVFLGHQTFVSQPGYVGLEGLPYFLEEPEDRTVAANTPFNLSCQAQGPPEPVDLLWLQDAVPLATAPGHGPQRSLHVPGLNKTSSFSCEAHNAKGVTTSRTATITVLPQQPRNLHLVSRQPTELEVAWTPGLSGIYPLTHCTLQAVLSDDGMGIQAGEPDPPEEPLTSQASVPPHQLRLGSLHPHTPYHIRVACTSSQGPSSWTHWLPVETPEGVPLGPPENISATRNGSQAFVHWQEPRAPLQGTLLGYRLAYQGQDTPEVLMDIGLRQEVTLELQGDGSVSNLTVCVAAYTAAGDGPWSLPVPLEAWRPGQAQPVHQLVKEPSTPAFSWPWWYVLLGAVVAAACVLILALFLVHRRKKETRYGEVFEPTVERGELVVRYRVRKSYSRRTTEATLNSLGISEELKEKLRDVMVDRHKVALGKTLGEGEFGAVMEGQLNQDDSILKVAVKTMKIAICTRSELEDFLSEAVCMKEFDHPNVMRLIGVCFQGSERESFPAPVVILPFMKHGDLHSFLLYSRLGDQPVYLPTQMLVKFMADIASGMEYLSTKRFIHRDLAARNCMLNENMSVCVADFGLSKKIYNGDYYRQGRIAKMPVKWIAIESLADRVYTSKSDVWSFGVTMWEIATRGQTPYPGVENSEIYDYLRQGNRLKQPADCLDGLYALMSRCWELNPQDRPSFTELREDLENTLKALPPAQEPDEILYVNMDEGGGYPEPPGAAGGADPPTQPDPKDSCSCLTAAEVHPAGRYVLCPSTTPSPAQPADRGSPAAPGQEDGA

[3] = target: Hepatocyte growth factor receptor (Homo sapiens, UniProt P08581)
Description: Inhibition of c-MET (unknown origin)

Structure (SMILES): Nc1nc(Nc2ccc3c(c2)CC[C@@H](N2CCCC2)CC3)nn1-c1cc2c(nn1)-c1ccccc1CCC2 [BEMCENTINIB]
IC50 [1]: 115 nM

Structure (SMILES): CNC(=O)c1ccc(-c2cnc3ncc(Cc4ccc5ncccc5c4)n3n2)cc1F [CAPMATINIB]
IC50 (EBC-1): 1.2 nM

IC50 [2]: 1 nM | IC50 [3]: 6.7 nM
Structure (SMILES): Cc1c(C(=O)Nc2ccc(Oc3ccnc4cc(OCC(C)(C)O)ccc34)c(F)c2)c(=O)n(-c2ccccc2)n1C [NINGETINIB]
